In patent publication US20070105928A1, “6-Pentafluorophenyl-triazolopyrimidines, method for their production and their use for combating pathogenic fungi, in addition to agents containing said substances” (priority 2003, published 2007):

How the values were obtained:
[1] = system: Botrytis cinerea; experiment: Activity against gray mold on bell pepper leaves caused by Botrytis cinerea, protective application; assay type: in vivo; settings: 63 ppm, bell pepper seedlings cultivar Neusiedler Ideal Elite, protective spray, assessed after 5 days; untreated plants 90% infected
Description: The active compounds were prepared as a stock solution with 0.25% by weight of active compound in acetone or DMSO. 1% by weight of the emulsifier Uniperol® EL (wetting agent having emulsifying and dispersing action based on ethoxylated alkylphenols) was added to this solution, and the mixture was diluted with water to the desired concentration. Bell pepper seedlings of the cultivar “Neusiedler Ideal Elite” were, after 2 to 3 leaves were well developed, sprayed to runoff point with an aqueous suspension having the concentration of active compound stated below. The next day, the treated plants were inoculated with a spore suspension of Botrytis cinerea which contained 1.7×10^6 spores/ml in a 2% strength aqueous biomalt solution. The test plants were then placed in a dark climatized chamber at 22-24° C. and high atmospheric humidity. After 5 days, the extent of the fungal infection on the leaves could be determined visually in %.

[2] = system: Pyrenophora teres; experiment: Activity against net blotch of barley caused by Pyrenophora teres, protective application; assay type: in vivo, Pyrenophora [syn. Drechslera] teres; settings: 250 ppm, barley seedlings cultivar Hanna, protective spray, assessed after 6 days; untreated plants 90% infected
Description: The active compounds were prepared as a stock solution with 0.25% by weight of active compound in acetone or DMSO. 1% by weight of the emulsifier Uniperol® EL (wetting agent having emulsifying and dispersing action based on ethoxylated alkylphenols) was added to this solution, and the mixture was diluted with water to the desired concentration. Leaves of pot-grown barley seedlings of the cultivar “Hanna” were sprayed to run off point with an aqueous suspension having the concentration of active compound stated below. 24 hours after the spray coating had dried on, the test plants were inoculated with an aqueous suspension of Pyrenophora [syn. Drechslera] teres, the causative agent of net blotch. The test plants were subsequently placed in a greenhouse at 20-24° C. and 95-100% relative atmospheric humidity. After 6 days, the extent of development of the disease was determined visually in percent infection of the total leaf area.

Cc1nc2ncnn2c(N2CCC(C)CC2)c1-c1c(F)c(F)c(F)c(F)c1F [Compound I-3, 5-methyl-6-(pentafluorophenyl)-7-(4-methylpiperidinyl)-1,2,4-triazolo[1,5a]pyrimidine]
fungal infection on the leaves [1]: no infection | infection of the total leaf area [2]: 5%
